In US7276519B2, “Thieno[3,2-b]pyridine-6-carbonitriles and thieno[2,3-b]pyridine-5-carbonitriles as protein kinase inhibitors” (Wyeth, priority 2002, dated 2007):
Read-outs that look alike come from different tables or passages of the source.

Legend:
[1] = system: Rat2 fibroblasts stably transformed with v-Src/Hu c-Src fusion gene; experiment: Anchorage independent Src-transformed fibroblast proliferation assay; format: cell-based, rat; conditions: for IC50: suspension growth, MTS readout Day 5; for inhibition at 100 µM: Rat2, Table 1, read-out: Src cells % inh at 100 μM
Description: Anchorage Independent Src-Transformed Fibroblast Proliferation Assay Rat2 fibroblasts stably transformed with a plasmid containing a CMV promotor controlled v-Src/Hu c-Src fusion gene in which the catalytic domain of human c-Src was inserted in place of the v-Src catalytic domain in the v-Src gene are used for the measurement of src dependent suspension growth. […] Multiple entries for a given compound indicate that it was tested multiple times.

[2] = Rattus norvegicus, Rat2, 120 h, Table 1, read-out: Src cells IC50
[3] = Table 1, read-out: Src cells IC50

Row | SMILES | melting point | IC50 [1, 2] [µM] | also measured
1 | COc1cc(Nc2c(C#N)cnc3sc(CCCCO)cc23)cc(OC)c1OC [Example 30, 2-(4-Hydroxybutyl)-4-[(3,4,5-trimethoxyphenyl)amino]-thieno[2,3-b]pyridine-5-carbonitrile] | 125 to 127 °C | 23 | IC50 [1, 3]: 25 µM
2 | COc1cc(Nc2c(C#N)cnc3cc(C#CCN4CCN(C)CC4)sc23)cc(OC)c1OC [Example 57, 2-[3-(4-Methylpiperazin-1-yl)prop-1-ynyl]-7-[(3,4,5-trimethoxyphenyl)amino]thieno[3,2-b]pyridine-6-carbonitrile] | 180 to 182 °C | – | inhibition at 100 µM ([1]; Rattus norvegicus): 70%
3 | N#Cc1cnc2cc(-c3ccc(CO)cc3)sc2c1Nc1ccc(Oc2ccccc2)cc1 [Example 46, 2-[4-(Hydroxymethyl)phenyl]-7-[(4-phenoxyphenyl)amino]thieno[3,2-b]pyridine-6-carbonitrile] | 225 to 228 °C | – | inhibition at 100 µM ([1]; Rattus norvegicus): 26%
4 | N#Cc1cnc2cc(/C=C/c3ccncc3)sc2c1Nc1ccc(Oc2ccccc2)cc1 [Example 49, 7-[(4-Phenoxyphenyl)amino]-2-[(E)-2-pyridin-4-ylethenyl]thieno[3,2-b]pyridine-6-carbonitrile] | 240 to 241 °C | – | inhibition at 100 µM ([1]; Rattus norvegicus): 14%
5 | COc1cc(Nc2c(C#N)cnc3cc(-c4ccc(CN5CCC(O)CC5)cc4)sc23)c(Cl)cc1Cl [Example 40, 7-[(2,4-Dichloro-5-methoxyphenyl)amino]-2-{4-[(4-hydroxypiperidin-1-yl)methyl]phenyl}thieno[3,2-b]pyridine-6-carbonitrile] | 149 to 150 °C | 0.71 | IC50 [1, 3]: 0.43 µM
6 | COc1cc(N(C(C)=O)c2c(C#N)cnc3ccsc23)c(Cl)cc1Cl [Example 63, N-(6-Cyanothieno[3,2-b]pyridin-7-yl)-N-(2,4-dichloro-5-methoxyphenyl)acetamide] | 202 to 204 °C | – | –
7 | COc1cc(Nc2c(C#N)cnc3cc(C#C[Si](C)(C)C)sc23)c(Cl)cc1Cl [Example 32, 7-[(2,4-Dichloro-5-methoxyphenyl)amino]-2-[(trimethylsilyl)ethynyl]thieno[3,2-b]pyridine-6-carbonitrile] | 169 to 171 °C | – | IC50 ([1]; Rattus norvegicus, Rat2, 120 h, read-out: Src cells IC50 μM, Table 1): 1.5 µM
8 | COC(=O)CCCc1cc2c(Nc3cc(OC)c(OC)c(OC)c3)c(C#N)cnc2s1 [Example 29, 4-[5-Cyano-4-(3,4,5-trimethoxyphenylamino)-thieno[2,3-b]pyridin-2-yl]-butyric acid methyl ester] | 101 to 103 °C | – | –
9 | N#Cc1cnc2cc(-c3ccc(CN4CCOCC4)cc3)sc2c1Nc1ccc(Oc2ccccc2)cc1 [Example 45, 2-[4-(Morpholin-4-ylmethyl)phenyl]-7-[(4-phenoxyphenyl)amino]thieno[3,2-b]pyridine-6-carbonitrile] | 254 to 256 °C | – | inhibition at 100 µM ([1]; Rattus norvegicus): 2%
10 | COc1cc(Nc2c(C#N)cnc3sc(CCCCN4CCOCC4)cc23)cc(OC)c1OC [Example 31, 2-[4-(4-Morpholinyl)butyl]-4-[(3,4,5-trimethoxyphenyl)amino]-thieno[2,3-b]pyridine-5-carbonitrile] | – | 35 | –
11 | Cn1ccnc1Sc1ccc(Nc2c(C#N)cnc3sccc23)cc1Cl [Example 6, 4-[(3-Chloro-4-[(1-methyl-1H-imidazol-2-yl)thio]phenyl)amino]thieno[2,3-b]pyridine-5-carbonitrile] | > 240 °C | – | inhibition at 100 µM ([1]; Rattus norvegicus): 3%
12 | COc1cc(Nc2c(C#N)cnc3cc(-c4ccc(CN5CCN(C)CC5)cc4)sc23)c(Cl)cc1Cl [Example 16, 7-[(2,4-Dichloro-5-methoxyphenyl)amino]-2-[4-(4-methylpiperazin-1-ylmethyl)phenyl]thieno[3,2-b]pyridine-6-carbonitrile] | 226 to 228 °C | – | –
13 | N#Cc1cnc2cc(-c3ccc(C=O)cc3)sc2c1Nc1ccc(Cl)cc1Cl [Example 115, 7-[(2,4-dichlorophenyl)amino]-2-(4-formylphenyl)thieno[3,2-b]pyridine-6-carbonitrile] | 170 to 171 °C | – | –
14 | Cn1ccnc1Sc1ccc(Nc2c(C#N)cnc3cc(I)sc23)cc1Cl [Example 82, 7-({3-chloro-4-[(1-methyl-1H-imidazol-2-yl)thio]phenyl}amino)-2-iodothieno[3,2-b]pyridine-6-carbonitrile] | 290 to 291 °C | – | –
15 | COc1cc(Nc2c(C#N)cnc3cc(/C=C/C(=O)O)sc23)c(Cl)cc1Cl [Example 53, (2E)-3-(6-Cyano-7-[(2,4-dichloro-5-methoxyphenyl)amino]thieno[3,2-b]pyridin-2-yl)prop-2-enoate] | – | – | Src cells % inh at 100 μM ([1]; Table 1): 45%
16 | COc1cc(Nc2c(C#N)cnc3sc(-c4ccc(CN5CCOCC5)cc4)cc23)c(Cl)cc1Cl | 106 to 108 °C | – | –
17 | CN(C)c1ccc(-c2cc3ncc(C#N)c(Nc4ccc(Cl)cc4Cl)c3s2)cc1 [Example 126, 7-[(2,4-dichlorophenyl)amino]-2-[4-(dimethylamino)phenyl]thieno[3,2-b]pyridine-6-carbonitrile] | 239 to 241 °C | – | –
18 | Cn1ccnc1Sc1ccc(Nc2c(C#N)cnc3cc(-c4ccc(C=O)cc4)sc23)cc1Cl [Example 97, 7-({3-chloro-4-[(1-methyl-1H-imidazol-2-yl)thio]phenyl}amino)-2-(4-formylphenyl)thieno[3,2-b]pyridine-6-carbonitrile] | 279 to 281 °C | – | –

Now from value to compound, other results behind:

Row | melting point | SMILES | IC50 [1, 2] [µM] | also measured
19 | 221 to 223 °C | COc1cc(Nc2c(C#N)cnc3cc(C#Cc4ccncc4)sc23)c(Cl)cc1Cl [Example 34, 7-[(2,4-Dichloro-5-methoxyphenyl)amino]-2-(pyridin-4-ylethynyl)thieno[3,2-b]pyridine-6-carbonitrile] | 8.6 | –
20 | 237 to 239 °C | COc1cc(Nc2c(C#N)cnc3cc(C#Cc4ccccn4)sc23)c(Cl)cc1Cl [Example 22, 7-[(2,4-Dichloro-5-methoxyphenyl)amino]-2-(pyridin-2-ylethynyl)thieno[3,2-b]pyridine-6-carbonitrile] | 1 | –
21 | 213 to 214 °C | COc1cc(Nc2c(C#N)cnc3cc(C)sc23)c(Cl)cc1Cl [Example 9, 7-[(2,4-Dichloro-5-methoxyphenyl)amino]-2-methylthieno[3,2-b]pyridine-6-carbonitrile] | 20 | –
22 | 128 to 130 °C | COc1cc(Nc2c(C#N)cnc3cc(-c4ccsc4C=O)sc23)c(Cl)cc1Cl [Example 78, 7-[(2,4-dichloro-5-methoxyphenyl)amino]-2-(2-formylthien-3-yl)thieno[3,2-b]pyridine-6-carbonitrile] | – | –
23 | 175 °C (dec.) | COc1cc(Nc2c(C#N)cnc3sc(C#CCN4CCN(C)CC4)cc23)c(Cl)cc1Cl [Example 51, 4-[(2,4-Dichloro-5-methoxyphenyl)amino]-2-[3-(4-methylpiperazin-1-yl)prop-1-ynyl]thieno[2,3-b]pyridine-5-carbonitrile] | 9.9 | –
24 | 233 to 234 °C | COc1cc(Nc2c(C#N)cnc3cc(I)sc23)c(Cl)cc1Cl [Example 4, 7-[(2,4-Dichloro-5-methoxyphenyl)amino]-2-iodothieno[3,2-b]pyridine-6-carbonitrile] | 3.1 | –
25 | 232 to 233 °C | CCOc1cc(Nc2c(C#N)cnc3cc(I)sc23)c(Cl)cc1Cl [Example 110, 7-[(2,4-dichloro-5-ethoxyphenyl)amino]-2-iodothieno[3,2-b]pyridine-6-carbonitrile] | – | –
26 | 265 to 266 °C | COc1cc(Nc2c(C#N)cnc3c(Br)csc23)c(Cl)cc1Cl [Example 139, 3-Bromo-7-[(2,4-dichloro-5-methoxyphenyl)amino]thieno[3,2-b]pyridine-6-carbonitrile] | – | –
27 | > 300 °C | COc1cc(Nc2c(C#N)cnc3cc(-c4ccc(C(=O)O)cc4)sc23)c(Cl)cc1Cl [Example 19, 4-{6-Cyano-7-[(2,4-dichloro-5-methoxyphenyl)amino]thieno[3,2-b]pyridine-2-yl]benzoic acid] | > 10 | –
28 | > 300 °C | COc1cc(Nc2c(C#N)cnc3cc(-c4ccc(C(N)=O)cc4)sc23)c(Cl)cc1Cl [Example 20, 4-{6-Cyano-7-[(2,4-dichloro-5-methoxyphenyl)amino]thieno[3,2-b]pyridine-2-yl}benzamide] | 1 | –
29 | 262 to 263 °C | COc1cc(Nc2c(C#N)cnc3cc(-c4cccc(C=O)c4)sc23)c(Cl)cc1Cl [Example 25, 7-[(2,4-Dichloro-5-methoxyphenyl)amino]-2-(3-formylphenyl)thieno[3,2-b]pyridine-6-carbonitrile] | 1.1 | –
30 | > 240 °C | COc1cc(Nc2c(C#N)cnc3sc(-c4ccc(C=O)cc4)cc23)c(Cl)cc1Cl [Example 27, 4-[(2,4-Dichloro-5-methoxyphenyl)amino]-2-(4-formylphenyl)thieno[2,3-b]pyridine-5-carbonitrile] | – | inhibition at 100 µM ([1]; Rattus norvegicus): 19%; Src cells % inh at 100 μM ([1]; Table 1): 28%
31 | 230 to 233 °C | N#Cc1cnc2cc(I)sc2c1Nc1ccc(Cl)cc1Cl [Example 102, 7-[(2,4-dichlorophenyl)amino]-2-iodothieno[3,2-b]pyridine-6-carbonitrile] | – | –
32 | 172 to 173 °C | COc1cc(Nc2c(C#N)cnc3cc(C#CCN4CCN(C)CC4)sc23)c(Cl)cc1Cl | – | –
33 | 223 to 224 °C | COc1cc(Nc2c(C#N)cnc3cc(-c4coc(C=O)c4)sc23)c(Cl)cc1Cl [Example 138, 7-[(2,4-dichloro-5-methoxyphenyl)amino]-2-(5-formyl-3-furyl)thieno[3,2-b]pyridine-6-carbonitrile] | – | –
